Consider four compounds from paper PMC11173529, “Structure–Activity Relationship Studies in a Series of Xanthine Inhibitors of SLACK Potassium Channels” (Molecules, 2024).

Holding throughout (format): cell-based
The target of one data set is T1, hERG (Homo sapiens, UniProt Q12809).
T1 construct: expressed in transfected cells; host or cells: HEK293
The experiment in a line: Tl+-flux selectivity panel in HEK-293 cells: hERG. The conditions noted are these: HEK-293 cells stably expressing hERG, 10 µM test compound, relative to control bepridil, read-out: Percent Inhibition ± SEM. As for the experimental part: (§1) With a handful of analogs that offered improved SLACK potency relative to hit compound 8, we next proceeded to investigate the ancillary pharmacology of such compounds, both with respect to other Slo family members as well as versus a spectrum of diverse ion channels (Table 5). Thus, we screened four compounds (32, 48, 70, and 71) at 10 µM in our in-house selectivity panel of Tl^+-flux assays in HEK-293 cells stably expressing the target of interest. […] Some valuable SAR was noted as well. […] Reduction of inhibition at Maxi-K α1/β4 also followed. This SAR will be important to bear in mind for continued optimization within this series. […] Of particular note is the lack of significant hERG activity in this series, as activity versus that counter-target has been an issue with other SLACK inhibitors.
(§2) Stably transfected monoclonal HEK293 cell lines expressing Slick, Maxi-K α1/β3, Maxi-K α1/β4, CaV3.2, GIRK 1/2, KV2.1, KV7.2, NaV1.7, and TASK-1 were generated as previously described. Stably transfected monoclonal HEK293 cell lines expressing hERG were generated as previously described. CHO-K1 cells expressing human Slack and disease-associated human Slack mutations, G288S and A934T, were generated by transfecting a PiggyBac TRE mammalian expression vector (VectorBuilder, Chicago, IL, USA) containing KCNT1. FuGENE 6 (Promega, Madison, WI, USA) transfection reagent and protocol, together with Opti-MEM (Thermo Fisher Scientific, Walkham, MA, USA), were utilized.
(§3) The Tl^+ flux assays were conducted as previously described with modifications optimized for individual cell lines as described below. Following removal of cell culture media, cells were loaded with Tl^+-sensitive dye loading solution containing Thallos-AM (ION Biosciences, San Marcos, TX, USA), 1.25 mM Probenecid, and 0.3% Pluronic F-127 (MilliporeSigma, Burlington, MA, USA), in assay buffer comprised of Hanks Balanced Salt Solution (HBSS) (Thermo Fisher Scientific, Waltham, MA, USA) and 20 mM HEPES (Corning, Corning, NY, USA) at room temperature for one-hour. Dye loading solution was replaced with 20 μL/well of assay buffer prior to assaying. Cell plates were then loaded onto a Panoptic kinetic imaging plate reader (WaveFront Biosciences, Franklin, TN, USA). Data were acquired at 5 Hz (excitation 482 ± 35 nm, emission 536 ± 40 nm) for 10 s, at which time 20 μL/well of test compounds in assay buffer at 2-fold above the desired final concentration was added and allowed to incubate for 120 s. Next, 10 μL/well of Tl^+ stimulus buffer (129 mM Na gluconate, 1.2 mM CaSO4, 1 MgSO4, 1 mM Na2HPO4, 4.17 mM NaHCO3, 5.56 mM glucose, 2.5 mM Tl2SO4, and 10 mM HEPES pH 7.3) was added. Imaging was concluded after an additional 120 s.

The target of another data set is T2, KV7.2 (Homo sapiens, UniProt O43526).
T2 construct: expressed in transfected cells; host or cells: HEK293
Kind of data set: Tl+-flux selectivity panel in HEK-293 cells: KV7.2. To be noted: HEK293, 10 µM test compound, relative to control XE991, read-out: Percent Inhibition ± SEM. As for the experimental part: as §1, §2, §3

Another data set has as its target T3, KV2.1 (Homo sapiens, UniProt Q14721).
T3 construct: expressed in transfected cells; host or cells: HEK293
T3 sequence (Q14721 1-858): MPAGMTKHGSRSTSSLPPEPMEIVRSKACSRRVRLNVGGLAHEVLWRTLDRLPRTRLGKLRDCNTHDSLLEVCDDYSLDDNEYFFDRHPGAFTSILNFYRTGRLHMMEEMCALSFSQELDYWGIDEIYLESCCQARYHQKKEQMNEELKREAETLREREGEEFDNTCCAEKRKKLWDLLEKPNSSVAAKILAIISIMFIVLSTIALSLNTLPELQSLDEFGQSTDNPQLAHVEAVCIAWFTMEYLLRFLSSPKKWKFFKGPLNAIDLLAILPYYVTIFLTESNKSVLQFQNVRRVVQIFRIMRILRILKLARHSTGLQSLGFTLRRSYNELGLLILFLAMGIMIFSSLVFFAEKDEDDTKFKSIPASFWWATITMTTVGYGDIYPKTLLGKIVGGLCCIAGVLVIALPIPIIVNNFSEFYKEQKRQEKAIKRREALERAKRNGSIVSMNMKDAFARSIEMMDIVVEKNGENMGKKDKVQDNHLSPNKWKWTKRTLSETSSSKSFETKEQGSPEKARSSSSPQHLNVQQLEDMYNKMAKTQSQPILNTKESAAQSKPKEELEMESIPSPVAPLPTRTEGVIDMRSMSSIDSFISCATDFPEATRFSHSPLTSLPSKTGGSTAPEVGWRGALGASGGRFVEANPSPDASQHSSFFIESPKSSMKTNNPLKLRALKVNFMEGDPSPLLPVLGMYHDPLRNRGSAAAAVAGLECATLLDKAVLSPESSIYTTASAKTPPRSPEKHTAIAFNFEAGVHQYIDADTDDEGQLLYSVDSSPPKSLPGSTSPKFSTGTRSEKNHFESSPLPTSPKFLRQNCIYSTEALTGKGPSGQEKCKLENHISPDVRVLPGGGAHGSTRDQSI
Kind of data set: Tl+-flux selectivity panel in HEK-293 cells: KV2.1. To be noted: HEK293, 10 µM test compound, relative to control guangxitoxin 1E, read-out: Percent Inhibition ± SEM. As for the experimental part:
as §1, §2, §3

The target of a further data set is T4, Maxi-K α1/β4 (Homo sapiens, UniProt Q12791).
T4 construct: expressed in transfected cells; host or cells: HEK293
T4 sequence (Q12791 whole entry): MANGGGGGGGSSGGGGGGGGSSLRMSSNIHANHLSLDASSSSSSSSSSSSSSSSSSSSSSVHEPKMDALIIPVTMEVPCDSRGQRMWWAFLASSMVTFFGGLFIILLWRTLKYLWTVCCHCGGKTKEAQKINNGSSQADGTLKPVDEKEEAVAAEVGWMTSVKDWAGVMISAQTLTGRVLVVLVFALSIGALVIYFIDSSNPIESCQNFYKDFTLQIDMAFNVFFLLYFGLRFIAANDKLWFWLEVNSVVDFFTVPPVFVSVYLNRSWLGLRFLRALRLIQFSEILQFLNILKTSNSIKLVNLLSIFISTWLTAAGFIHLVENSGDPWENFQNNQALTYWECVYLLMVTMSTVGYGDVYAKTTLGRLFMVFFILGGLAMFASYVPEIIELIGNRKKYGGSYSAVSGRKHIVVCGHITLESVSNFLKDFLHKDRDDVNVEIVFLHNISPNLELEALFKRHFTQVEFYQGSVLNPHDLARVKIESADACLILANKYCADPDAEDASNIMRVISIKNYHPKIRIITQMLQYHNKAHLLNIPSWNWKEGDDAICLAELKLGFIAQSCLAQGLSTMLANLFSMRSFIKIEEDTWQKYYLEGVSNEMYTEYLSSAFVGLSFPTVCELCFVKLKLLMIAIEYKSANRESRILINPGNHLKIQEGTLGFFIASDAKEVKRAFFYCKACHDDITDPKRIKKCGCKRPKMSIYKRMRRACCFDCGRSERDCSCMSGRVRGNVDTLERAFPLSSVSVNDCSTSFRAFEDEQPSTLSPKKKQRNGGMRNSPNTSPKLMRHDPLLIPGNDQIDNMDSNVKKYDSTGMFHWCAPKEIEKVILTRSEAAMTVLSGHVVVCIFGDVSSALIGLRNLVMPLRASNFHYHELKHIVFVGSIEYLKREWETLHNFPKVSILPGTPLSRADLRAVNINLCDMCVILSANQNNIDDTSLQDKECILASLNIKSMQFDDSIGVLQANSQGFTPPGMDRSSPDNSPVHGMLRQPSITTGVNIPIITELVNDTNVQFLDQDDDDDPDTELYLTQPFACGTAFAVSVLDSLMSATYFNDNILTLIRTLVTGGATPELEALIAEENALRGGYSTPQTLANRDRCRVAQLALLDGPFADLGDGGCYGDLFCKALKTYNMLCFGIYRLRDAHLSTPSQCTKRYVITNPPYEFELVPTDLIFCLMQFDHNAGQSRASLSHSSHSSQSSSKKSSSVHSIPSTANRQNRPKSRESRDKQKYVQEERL
T4 sequence (Q86W47 whole entry partner): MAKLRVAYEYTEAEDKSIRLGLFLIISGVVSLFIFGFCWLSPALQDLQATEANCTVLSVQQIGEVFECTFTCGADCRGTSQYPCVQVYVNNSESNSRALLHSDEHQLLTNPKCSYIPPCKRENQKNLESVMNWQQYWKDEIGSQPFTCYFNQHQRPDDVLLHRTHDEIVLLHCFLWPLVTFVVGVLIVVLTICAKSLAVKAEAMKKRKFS
The experiment in a line: Tl+-flux selectivity panel in HEK-293 cells: Maxi-K α1/β4. To be noted: HEK293, 10 µM test compound, relative to control paxilline, read-out: Percent Inhibition ± SEM. As for the experimental part:
as §1, §2, §3

The target of a further data set is T5, NaV1.7 (Homo sapiens, UniProt Q15858).
T5 construct: expressed in transfected cells; host or cells: HEK293
T5 sequence (Q15858 whole entry): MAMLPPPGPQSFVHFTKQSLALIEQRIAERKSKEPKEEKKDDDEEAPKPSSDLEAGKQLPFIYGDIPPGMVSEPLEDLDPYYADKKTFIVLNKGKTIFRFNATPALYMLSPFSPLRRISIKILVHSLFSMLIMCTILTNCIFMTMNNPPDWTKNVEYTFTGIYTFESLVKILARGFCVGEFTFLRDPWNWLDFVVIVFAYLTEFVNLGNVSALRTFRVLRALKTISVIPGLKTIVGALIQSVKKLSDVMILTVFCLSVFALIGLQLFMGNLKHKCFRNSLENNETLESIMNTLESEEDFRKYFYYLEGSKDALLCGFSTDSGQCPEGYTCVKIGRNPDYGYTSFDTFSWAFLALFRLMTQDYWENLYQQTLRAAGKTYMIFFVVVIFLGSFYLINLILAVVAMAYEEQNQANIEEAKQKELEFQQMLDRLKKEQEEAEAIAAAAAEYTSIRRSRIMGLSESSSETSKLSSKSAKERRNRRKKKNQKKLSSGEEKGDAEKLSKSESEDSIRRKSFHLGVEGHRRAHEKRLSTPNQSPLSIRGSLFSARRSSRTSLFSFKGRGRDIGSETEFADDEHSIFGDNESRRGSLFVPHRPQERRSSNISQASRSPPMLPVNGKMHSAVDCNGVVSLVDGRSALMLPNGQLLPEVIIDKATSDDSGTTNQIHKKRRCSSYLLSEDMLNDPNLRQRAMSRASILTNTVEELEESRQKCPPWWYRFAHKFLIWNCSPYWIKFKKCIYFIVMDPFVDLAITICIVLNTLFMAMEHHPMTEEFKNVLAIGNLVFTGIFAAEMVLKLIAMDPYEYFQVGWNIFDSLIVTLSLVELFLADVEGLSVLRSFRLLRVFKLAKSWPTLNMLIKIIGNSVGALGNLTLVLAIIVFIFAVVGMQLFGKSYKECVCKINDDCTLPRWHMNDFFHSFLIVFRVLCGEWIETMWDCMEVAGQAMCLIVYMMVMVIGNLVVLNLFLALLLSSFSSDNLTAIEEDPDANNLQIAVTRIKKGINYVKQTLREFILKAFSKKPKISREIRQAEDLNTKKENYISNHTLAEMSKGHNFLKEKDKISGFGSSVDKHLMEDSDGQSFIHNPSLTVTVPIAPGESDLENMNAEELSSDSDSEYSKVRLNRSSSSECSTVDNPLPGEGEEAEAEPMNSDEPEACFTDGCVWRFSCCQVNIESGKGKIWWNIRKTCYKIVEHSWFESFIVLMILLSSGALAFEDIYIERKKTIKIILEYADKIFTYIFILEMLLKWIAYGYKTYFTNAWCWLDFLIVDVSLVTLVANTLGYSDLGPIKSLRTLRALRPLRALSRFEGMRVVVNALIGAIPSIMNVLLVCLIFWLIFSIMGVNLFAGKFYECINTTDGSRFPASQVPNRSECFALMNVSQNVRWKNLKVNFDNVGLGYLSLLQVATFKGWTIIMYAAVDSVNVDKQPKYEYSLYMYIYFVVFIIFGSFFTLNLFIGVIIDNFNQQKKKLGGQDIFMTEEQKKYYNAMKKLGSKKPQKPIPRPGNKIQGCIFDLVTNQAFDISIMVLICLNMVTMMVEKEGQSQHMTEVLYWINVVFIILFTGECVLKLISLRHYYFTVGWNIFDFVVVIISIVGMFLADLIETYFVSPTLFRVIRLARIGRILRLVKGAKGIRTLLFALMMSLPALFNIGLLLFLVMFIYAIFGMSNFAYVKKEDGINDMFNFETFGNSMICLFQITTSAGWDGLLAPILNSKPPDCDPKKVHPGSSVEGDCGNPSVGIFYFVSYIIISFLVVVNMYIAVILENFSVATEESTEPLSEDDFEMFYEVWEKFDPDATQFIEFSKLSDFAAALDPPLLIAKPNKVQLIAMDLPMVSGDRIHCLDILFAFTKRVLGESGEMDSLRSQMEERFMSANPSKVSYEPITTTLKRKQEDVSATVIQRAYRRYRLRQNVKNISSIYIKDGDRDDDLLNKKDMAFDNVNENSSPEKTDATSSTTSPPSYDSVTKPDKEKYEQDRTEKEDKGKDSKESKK
The experiment in a line: Tl+-flux selectivity panel in HEK-293 cells: NaV1.7. To be noted: HEK293, 10 µM test compound, relative to control TC-N 1752, read-out: Percent Inhibition ± SEM. As for the experimental part: as §1, §2, §3

T1 sequence (Q12809 whole entry): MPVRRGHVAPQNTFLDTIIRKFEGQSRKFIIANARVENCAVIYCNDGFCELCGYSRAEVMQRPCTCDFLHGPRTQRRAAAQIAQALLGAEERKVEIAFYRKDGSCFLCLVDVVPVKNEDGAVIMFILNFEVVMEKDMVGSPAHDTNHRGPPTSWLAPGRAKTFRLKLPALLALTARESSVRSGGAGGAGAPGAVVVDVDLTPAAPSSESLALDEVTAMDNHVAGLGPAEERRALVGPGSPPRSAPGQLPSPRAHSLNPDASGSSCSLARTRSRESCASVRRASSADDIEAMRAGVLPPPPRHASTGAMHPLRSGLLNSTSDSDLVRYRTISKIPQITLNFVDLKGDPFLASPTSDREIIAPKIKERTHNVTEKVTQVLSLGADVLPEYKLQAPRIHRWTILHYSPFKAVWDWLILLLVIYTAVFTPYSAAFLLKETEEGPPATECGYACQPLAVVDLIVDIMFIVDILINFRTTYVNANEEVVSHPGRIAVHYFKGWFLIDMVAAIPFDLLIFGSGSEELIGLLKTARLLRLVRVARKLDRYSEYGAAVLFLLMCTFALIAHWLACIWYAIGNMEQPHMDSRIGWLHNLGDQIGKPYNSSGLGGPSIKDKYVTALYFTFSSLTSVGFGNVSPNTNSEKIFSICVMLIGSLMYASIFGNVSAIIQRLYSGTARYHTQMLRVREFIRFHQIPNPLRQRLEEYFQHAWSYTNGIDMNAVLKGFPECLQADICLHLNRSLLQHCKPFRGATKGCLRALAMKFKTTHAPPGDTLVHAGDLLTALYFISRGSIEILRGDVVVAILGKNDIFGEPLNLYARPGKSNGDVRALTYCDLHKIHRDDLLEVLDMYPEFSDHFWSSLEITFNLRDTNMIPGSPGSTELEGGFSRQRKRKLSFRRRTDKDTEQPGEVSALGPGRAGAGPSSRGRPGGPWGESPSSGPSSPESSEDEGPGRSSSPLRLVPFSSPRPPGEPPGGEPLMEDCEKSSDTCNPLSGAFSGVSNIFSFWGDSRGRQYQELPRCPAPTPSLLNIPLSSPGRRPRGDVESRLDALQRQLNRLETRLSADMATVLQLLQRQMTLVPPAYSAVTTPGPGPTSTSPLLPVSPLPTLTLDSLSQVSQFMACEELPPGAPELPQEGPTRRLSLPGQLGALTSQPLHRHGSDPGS

`COc1cccc(Cn2c(=O)c3c(nc(N(C)Cc4ccccc4)n3C)n(C)c2=O)c1` [Analog 32]: on hERG, the inhibition (in general, the drop in the measured response relative to a control, in per cent) at 120 s, 10 µM was determined as 4.6 ± 4.5%. In addition, the inhibition at 10 µM on KV7.2 came out at 16 ± 2.2%; at KV2.1 it was 51 ± 1.5%; at Maxi-K α1/β4 it was 48 ± 2%; on NaV1.7, 41 ± 3.3%.
On to `Cn1c(N(Cc2ccccc2)CC2CC2)nc2c1c(=O)n(Cc1ccccc1)c(=O)n2C` [Analog 71], for which the inhibition at 120 s, 10 µM on hERG turned out to be 23 ± 4%. Also, the inhibition at 10 µM at KV7.2 was found to be 14 ± 1.6%; on KV2.1, 33 ± 1.2%; on Maxi-K α1/β4, 12 ± 3.9%; on NaV1.7, 29 ± 3%.
Regarding `CCCCN(Cc1ccccc1)c1nc2c(c(=O)n(Cc3ccccc3)c(=O)n2C)n1C` [Analog 70], the inhibition at 120 s, 10 µM on hERG amounted to 22 ± 2%. The inhibition at 10 µM at KV7.2 came to 19 ± 0.2%; on KV2.1, 35 ± 1.3%; on Maxi-K α1/β4 it was 8.5 ± 2.1%; on NaV1.7, 33 ± 1.4%.
The matching figures for `CN(Cc1cccc(F)c1)c1nc2c(c(=O)n(Cc3ccccc3)c(=O)n2C)n1C` [Analog 48]: -2.8 ± 2.4%, 15 ± 2.3%, 51 ± 1.2%, 42 ± 4.6% and 39 ± 3.1%.
